Laboratory results: ChEMBL document CHEMBL4680212, “Discovery of T-1101 tosylate as a first-in-class clinical candidate for Hec1/Nek2 inhibition in cancer therapy” (Eur J Med Chem, 2020)
Blank lines part the entries; values can stand above or below the compound they belong to.

Columns and labels:
MDA-MB-231 [1] = experiment: Antiproliferative activity against human MDA-MB-231 cells measured after 96 hrs by CellTiter 96 Aqueous One Solution Reagent based assay; format: functional, cell-based; settings: MDA-MB-231, 96 h
MDA-MB-468 [2] = experiment: Antiproliferative activity against human MDA-MB-468 cells measured after 96 hrs by CellTiter 96 Aqueous One Solution Reagent based assay; format: functional, cell-based; settings: MDA-MB-468, 96 h
K562 = experiment: Antiproliferative activity against human K562 cells measured after 96 hrs by CellTiter 96 Aqueous One Solution Reagent based assay; format: functional, cell-based; settings: K562, 96 h
HeLa [3] = experiment: Antiproliferative activity against human HeLa cells measured after 96 hrs by CellTiter 96 Aqueous One Solution Reagent based assay; format: functional, cell-based
[4] = AUC in CD-1 mouse at 10 mg/kg, po administered as single dose via gavage by LC-MS/MS analysis; format: ADME, organism-based; parameters: dose 10 mg/kg; settings: in vivo
[5] = Oral bioavailability in CD-1 mouse at 10 mg/kg administered as single dose via gavage by LC-MS/MS analysis; format: ADME, organism-based; settings: in vivo
MDA-MB-468 [6] = experiment: Induction of mitosis in human MDA-MB-468 cells assessed as mitotic abnormalities at 1 uM measured after 24 hrs by immunofluorescence staining based microscopic analysis (reference value: 23%); format: functional
MDA-MB-468 [7] = experiment: Induction of mitosis in human MDA-MB-468 cells assessed as mitotic abnormalities at 1 uM measured after 48 hrs by immunofluorescence staining based microscopic analysis (reference value: 23%); format: functional
HeLa [8] = experiment: Cell cycle arrest in human HeLa cells assessed as accumulation at sub-G1 phase at 1 uM measured after 24 hrs by propidium iodide staining based FACS analysis (reference value: 3.64%); format: functional
HeLa [9] = experiment: Cell cycle arrest in human HeLa cells assessed as accumulation at G1 phase at 1 uM measured after 24 hrs by propidium iodide staining based FACS analysis (reference value: 66.51%); format: functional
HeLa [10] = experiment: Cell cycle arrest in human HeLa cells assessed as accumulation at S phase at 1 uM measured after 24 hrs by propidium iodide staining based FACS analysis (reference value: […]%); format: functional
HeLa [11] = experiment: Cell cycle arrest in human HeLa cells assessed as accumulation at G2/M phase at 1 uM measured after 24 hrs by propidium iodide staining based FACS analysis (reference value: 12.93%); format: functional
U-937 = experiment: Antiproliferative activity against human U-937 cells measured after 96 hrs by CellTiter 96 Aqueous One Solution Reagent based assay; format: functional
COLO 205 = experiment: Antiproliferative activity against human COLO 205 cells measured after 96 hrs by CellTiter 96 Aqueous One Solution Reagent based assay; format: functional
U2OS = experiment: Antiproliferative activity against human U2OS cells measured after 96 hrs by CellTiter 96 Aqueous One Solution Reagent based assay; format: functional
[12] = target: Voltage-gated inwardly rectifying potassium channel KCNH2 (Homo sapiens, UniProt Q12809); experiment: Inhibition of human ERG
Sequence of Voltage-gated inwardly rectifying potassium channel KCNH2 (Q12809 whole entry): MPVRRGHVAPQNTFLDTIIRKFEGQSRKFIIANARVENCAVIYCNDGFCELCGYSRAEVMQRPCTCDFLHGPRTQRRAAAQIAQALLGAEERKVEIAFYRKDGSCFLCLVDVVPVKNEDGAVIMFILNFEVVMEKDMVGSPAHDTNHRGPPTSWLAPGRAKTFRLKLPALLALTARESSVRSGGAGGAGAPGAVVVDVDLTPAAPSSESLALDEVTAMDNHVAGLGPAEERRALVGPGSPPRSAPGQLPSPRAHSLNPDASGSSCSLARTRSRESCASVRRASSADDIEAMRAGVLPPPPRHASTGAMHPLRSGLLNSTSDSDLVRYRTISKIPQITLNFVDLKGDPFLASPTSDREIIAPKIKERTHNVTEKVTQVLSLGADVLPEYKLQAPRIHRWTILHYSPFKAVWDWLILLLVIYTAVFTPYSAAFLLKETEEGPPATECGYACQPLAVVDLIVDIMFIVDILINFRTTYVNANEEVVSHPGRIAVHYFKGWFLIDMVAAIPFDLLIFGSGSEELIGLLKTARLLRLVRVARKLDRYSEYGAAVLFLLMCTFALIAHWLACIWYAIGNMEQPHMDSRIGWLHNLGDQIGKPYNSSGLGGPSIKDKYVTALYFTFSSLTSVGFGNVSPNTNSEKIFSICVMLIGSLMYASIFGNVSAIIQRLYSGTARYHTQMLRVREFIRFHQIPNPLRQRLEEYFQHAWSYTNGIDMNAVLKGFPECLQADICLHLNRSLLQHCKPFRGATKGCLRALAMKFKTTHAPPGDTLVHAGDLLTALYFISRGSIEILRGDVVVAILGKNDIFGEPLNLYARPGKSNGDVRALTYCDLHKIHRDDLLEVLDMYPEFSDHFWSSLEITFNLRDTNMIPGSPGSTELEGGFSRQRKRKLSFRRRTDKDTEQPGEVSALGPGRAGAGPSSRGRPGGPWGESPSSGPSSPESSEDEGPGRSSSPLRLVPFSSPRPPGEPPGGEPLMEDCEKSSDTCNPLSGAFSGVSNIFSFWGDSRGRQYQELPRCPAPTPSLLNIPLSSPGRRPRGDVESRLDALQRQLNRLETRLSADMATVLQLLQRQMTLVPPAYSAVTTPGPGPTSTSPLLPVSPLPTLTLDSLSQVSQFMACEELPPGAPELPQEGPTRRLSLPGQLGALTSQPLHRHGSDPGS

[13] = Drug level in tumor of human Huh-7 cells xenografted SCID mouse at 10 mg/kg, iv measured after 0.5 hrs by LC-MS/MS analysis; format: ADME, organism-based, Neoplasm; settings: read-out: Drug uptake
[14] = Drug level in tumor of human Huh-7 cells xenografted SCID mouse at 10 mg/kg, iv measured after 1 hr by LC-MS/MS analysis; format: ADME, organism-based, Neoplasm; settings: read-out: Drug uptake
[15] = Drug level in tumor of human Huh-7 cells xenografted SCID mouse at 10 mg/kg, iv measured after 4 hrs by LC-MS/MS analysis; format: ADME, organism-based, Neoplasm; settings: read-out: Drug uptake
[16] = Drug level in tumor of human Huh-7 cells xenografted SCID mouse at 10 mg/kg, iv measured after 8 hrs by LC-MS/MS analysis; format: ADME, organism-based, Neoplasm; settings: read-out: Drug uptake
[17] = Drug level in tumor of human Huh-7 cells xenografted SCID mouse at 10 mg/kg, iv measured after 12 hrs by LC-MS/MS analysis; format: ADME, organism-based, Neoplasm; settings: read-out: Drug uptake
[18] = Drug level in tumor of human Huh-7 cells xenografted SCID mouse at 10 mg/kg, iv measured after 24 hrs by LC-MS/MS analysis; format: ADME, organism-based, Neoplasm; settings: read-out: Drug uptake
Huh-7 [19] = experiment: Antiproliferative activity against human Huh-7 cells by CellTiter 96 Aqueous One Solution Reagent based assay; format: functional; parameters: dose or concentration left out as unconfirmed
Huh-7 [20] = experiment: Anticancer activity against human Huh-7 cells after 24 hrs by CellTiter 96 Aqueous One Solution Reagent based assay; format: functional
[21] = Ratio of drug level in tumor to plasma of human Huh-7 cells xenografted SCID mouse at 10 mg/kg, iv measured after 0.5 hrs by LC-MS/MS analysis; format: ADME, organism-based; settings: tumour
[22] = Ratio of drug level in tumor to plasma of human Huh-7 cells xenografted SCID mouse at 10 mg/kg, iv measured after 1 hr by LC-MS/MS analysis; format: ADME, organism-based; settings: tumour
[23] = Ratio of drug level in tumor to plasma of human Huh-7 cells xenografted SCID mouse at 10 mg/kg, iv measured after 4 hrs by LC-MS/MS analysis; format: ADME, organism-based; settings: tumour
[24] = Ratio of drug level in tumor to plasma of human Huh-7 cells xenografted SCID mouse at 10 mg/kg, iv measured after 8 hrs by LC-MS/MS analysis; format: ADME, organism-based; settings: tumour
[25] = Ratio of drug level in tumor to plasma of human Huh-7 cells xenografted SCID mouse at 10 mg/kg, iv measured after 12 hrs by LC-MS/MS analysis; format: ADME, organism-based; settings: tumour
[26] = Ratio of drug level in tumor to plasma of human Huh-7 cells xenografted SCID mouse at 10 mg/kg, iv measured after 24 hrs by LC-MS/MS analysis; format: ADME, organism-based; settings: tumour
[27] = Drug level in tumor of human MDA-MB-231 cells xenografted SCID mouse at 10 mg/kg, iv measured after 2 hrs by LC-MS/MS analysis; format: ADME, organism-based, Neoplasm; settings: read-out: Drug uptake
[28] = Ratio of drug level in tumor to plasma of human MDA-MB-231 cells xenografted SCID mouse at 10 mg/kg, iv measured after 2 hrs by LC-MS/MS analysis; format: ADME, organism-based; settings: tumour
Huh-7 [29] = experiment: Antitumor activity against human Huh-7 cells xenografted in SCID mouse assessed as tumor growth at 50 mg/kg, po administered twice daily for 28 days measured post last dose relative to control; format: functional; settings: time 28 day
BT-474 = experiment: Antitumor activity against human BT-474 cells xenografted in SCID mouse assessed as tumor growth at 50 mg/kg, po administered twice daily for 28 days measured post last dose relative to control; format: functional; settings: time 28 day
MCF7 = experiment: Antitumor activity against human MCF7 cells xenografted in SCID mouse assessed as tumor growth at 50 mg/kg, po administered twice daily for 28 days measured post last dose relative to control; format: functional; settings: time 28 day
MDA-MB-231 [30] = experiment: Antitumor activity against human MDA-MB-231 cells xenografted in SCID mouse assessed as tumor growth at 25 mg/kg, po administered twice daily for 28 days measured post last dose relative to control; format: functional; settings: time 28 day
Huh-7 [31] = experiment: Antitumor activity against human Huh-7 cells xenografted in SCID mouse assessed as tumor growth at 25 mg/kg, po administered once daily for 28 days measured post last dose relative to control; format: functional; settings: time 28 day
Huh-7 [32] = experiment: Antitumor activity against human Huh-7 cells xenografted in SCID mouse assessed as tumor growth at […], po administered twice daily for 28 days measured post last dose in presence of sorafenib relative to control; format: functional; settings: time 28 day
Huh-7 [33] = experiment: Antitumor activity against human Huh-7 cells xenografted in SCID mouse assessed as tumor growth at […], po administered twice daily for 28 days measured post last dose relative to control; format: functional; settings: time 28 day
[34] = Tmax in CD-1 mouse at 10 mg/kg, po administered as single dose via gavage by LC-MS/MS analysis; format: ADME, organism-based; settings: in vivo
[35] = Cmax in CD-1 mouse at 10 mg/kg, po administered as single dose via gavage by LC-MS/MS analysis; format: ADME, organism-based; parameters: route oral, dose 10 mg/kg; settings: in vivo
[36] = Half life in CD-1 mouse at 10 mg/kg, po administered as single dose via gavage by LC-MS/MS analysis; format: ADME, organism-based; settings: in vivo
[37] = Toxicity in Sprague-Dawley rat assessed as effect on locomotor activity up to 60 mg/kg, po administered as single dose; format: organism-based; settings: in vivo
[38] = Toxicity in Sprague-Dawley rat assessed as restlessness up to 60 mg/kg, po administered as single dose; format: organism-based; settings: in vivo
[39] = Toxicity in Sprague-Dawley rat assessed as lethargy up to 60 mg/kg, po administered as single dose; format: organism-based; settings: in vivo
[40] = Toxicity in Sprague-Dawley rat assessed as tremor up to 60 mg/kg, po administered as single dose; format: organism-based; settings: in vivo
[41] = Toxicity in Sprague-Dawley rat assessed as convulsion up to 60 mg/kg, po administered as single dose; format: organism-based; settings: in vivo
[42] = Toxicity in Sprague-Dawley rat assessed as change in touch response up to 60 mg/kg, po administered as single dose; format: organism-based; settings: in vivo
[43] = Toxicity in Beagle dog assessed as cardiopulmonary effect at 40 mg/kg, po administered as single dose; format: organism-based, Canis lupus familiaris; settings: in vivo
[44] = Toxicity in Sprague-Dawley rat assessed as change in clinical pathology at 60 mg/kg, po measured during 28 days; format: organism-based; settings: in vivo, time 28 day
[45] = Toxicity in Sprague-Dawley rat assessed as change in serum biochemistry at 60 mg/kg, po measured during 28 days; format: organism-based; settings: in vivo, time 28 day
[46] = Toxicity in Sprague-Dawley rat assessed as effect on organ at 60 mg/kg, po measured during 28 days; format: organism-based; settings: in vivo, time 28 day

IC50 (MDA-MB-231 [1]): 0.0148 µM
IC50 (MDA-MB-468 [2]): 0.0215 µM
IC50 (K562): 0.018 µM
IC50 (HeLa [3]): 0.0211 µM
AUC [4]: 43.5 µM·h
bioavailability [5]: 50.6%
GI50 (U-937): 0.0124 µM
GI50 (COLO 205): 0.0291 µM
GI50 (U2OS): 0.0832 µM
concentration at 0.5 h [13]: 3380 nM
concentration at 1 h [14]: 2660 nM
concentration at 4 h [15]: 2070 nM
concentration at 8 h [16]: 937 nM
concentration at 12 h [17]: 507 nM
concentration at 24 h [18]: 59.9 nM
GI50 (Huh-7 [19]): 0.035 µM
GI50 (Huh-7 [20]): 0.0599 µM
Ratio [21]: 20.7%
Ratio [22]: 26.1%
Ratio [23]: 33.2%
Ratio [24]: 35%
Ratio [25]: 60.5%
Ratio [26]: 41.1%
concentration at 2 h [27]: 2950 nM
Ratio [28]: 24.1%
Tmax [34]: 0.5 h
Cmax [35]: 6300 nM
half-life [36]: 2.57 h
Compound: COCCOc1cnc(Sc2cc(C)c(-c3csc(NC(=O)c4ccncc4)n3)c(C)c2)cn1
Activity (MDA-MB-468 [6]): 45%
Activity (MDA-MB-468 [7]): 64%
Activity (HeLa [8]): 20.44%
Activity (HeLa [9]): 54.2%
Activity (HeLa [10]): 15.07%
Activity (HeLa [11]): 9.27%
inhibition (INH) [12]: Not Active
T/C (Huh-7 [29]): 18%
T/C (BT-474): 19%
T/C (MCF7): 52%
T/C (MDA-MB-231 [30]): 40%
T/C (Huh-7 [31]): 25%
T/C (Huh-7 [32]): 26%
T/C (Huh-7 [33]): 61%
Activity [37]: Non-Toxic
Activity [38]: Non-Toxic
Activity [39]: Non-Toxic
Activity [40]: Non-Toxic
Activity [41]: Non-Toxic
Activity [42]: Non-Toxic
Activity [43]: Non-Toxic
Activity [44]: Non-Toxic
Activity [45]: Non-Toxic
Activity [46]: Non-Toxic

AUC [4]: 47.5 µM·h
bioavailability [5]: 58.5%
Tmax [34]: 1.5 h
Cmax [35]: 8440 nM
half-life [36]: 3.38 h
Compound: COCCOc1cnc(Sc2cc(C)c(-c3csc(NC(=O)c4ccncc4)n3)c(C)c2)cn1.CS(=O)(=O)O
